One molecule from patent US4237305A, “Substituted phenylacetic acid compounds and process for preparation thereof” (Fujisawa Pharmaceutical Co., Ltd., priority 1976, dated 1980) can be followed below.

Assay [1] concerns Escherichia coli 114. The assay can be described thus: MIC (Minimum Inhibitory Concentration) determined by conventional method, Escherichia coli 114. Format: cell-based. An excerpt:
(§1) MIC (Minimum Inhibitory Concentration) value
(§2) determined by conventional method

Assay [2] concerns Pseudomonas aeruginosa 10490. The assay can be described thus: MIC (Minimum Inhibitory Concentration) determined by conventional method, Pseudomonas aeruginosa 10490. The assay is classed as cell-based.
Description: as §1, §2

Turning to `NC(CCOc1ccc(C(=O)C(=O)NC2CN(C(C(=O)O)c3ccc(O)cc3)C2=O)cc1)C(=O)O` (centres unmarked) [d.circle.], the “MIC (Minimum Inhibitory Concentration) value” in assay [1] is 1.6; in assay [2], 25.
